# US10017506B2, “ATX modulating agents” (BIOGEN MA INC., priority 2012, dated 2018)
# Target: T1, Human ATX protein (Homo sapiens, UniProt Q13822)
# T1 construct: made in house
# Assay: ATX biochemical FRET assay with FS-3 substrate
# Settings: FRET substrate FS-3 2 μM, ATX 1.0 μg/mL, 30 minutes pre-incubation, 2 hours at room temperature; read-out: IC50
# Summary of the method: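 Enzyme at 1.0 μg/mL final, pre-incubated with compound (10-point, 3-fold series) for 30 min at RT in Tris pH 7.4 buffer with NaCl, KCl, CaCl2, MgCl2 and 1 mg/mL fatty-acid-free BSA. After FS-3 addition, 2 h at RT protected from light; fluorescence at 485/538 nm.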
row,Compound,IC50 [nM]
1,"CCC(NC1CC(C(=O)O)C1(C)C)c1ccc2ccc(O[C@H]3CC[C@@H](C)CC3)c(C(F)(F)F)c2c1 (stereo partly drawn) [Example 105, 2,2-dimethyl-3-((1-(7-((cis-4-methylcyclohexyl)oxy)-8-(trifluoromethyl)naphthalen-2-yl)propyl)amino)cyclobutanecarboxylic acid]",≤ 100
2,"CC(C)[C@H]1CC[C@@H](Oc2ccc3ccc(CN4CCC(C(=O)O)CC4)cc3c2C(F)(F)F)CC1 [Example 106, 1-((7-((cis-4-isopropylcyclohexyl)oxy)-8-(trifluoromethyl)naphthalen-2-yl)methyl)piperidine-4-carboxylic acid]",≤ 500
3,"CC(N[C@H]1C[C@@H](C(=O)O)C1)c1ccc2ccc(O[C@H]3CC[C@@H](C)CC3)c(C(F)(F)F)c2c1 (stereo partly drawn) [Example 110, cis-3-((1-(7-((cis-4-methylcyclohexyl)oxy)-8-(trifluoromethyl)naphthalen-2-yl)ethyl)amino)cyclobutanecarboxylic acid]",≤ 500
4,"CC(N[C@@H]1C[C@H](C(=O)O)C1(C)C)c1ccc2ccc(O[C@H]3CC[C@@H](C)CC3)c(C(F)(F)F)c2c1 (stereo partly drawn) [Example 112, (1S,3R)-2,2-dimethyl-3-((1-(7-((cis-4-methylcyclohexyl)oxy)-8-(trifluoromethyl)naphthalen-2-yl)ethyl)amino)cyclobutanecarboxylic acid]",≤ 100
5,"CC(N[C@H]1C[C@@H](C(=O)O)C1(C)C)c1ccc2ccc(O[C@H]3CC[C@@H](C)CC3)c(C(F)(F)F)c2c1 (stereo partly drawn) [Example 113, (1R,3S)-2,2-dimethyl-3-((1-(7-((cis-4-methylcyclohexyl)oxy)-8-(trifluoromethyl)naphthalen-2-yl)ethyl)amino)cyclobutanecarboxylic acid]",≤ 100
6,"C[C@H](N[C@H]1C[C@@H](C(=O)O)C1(C)C)c1ccc2ccc(O[C@H]3CC[C@@H](C)CC3)c(C(F)(F)F)c2c1 [Example 114b, (1R,3S)-2,2-dimethyl-3-(((S)-1-(7-((cis-4-methylcyclohexyl)oxy)-8-(trifluoromethyl)naphthalen-2-yl)ethyl)amino)cyclobutanecarboxylic acid]",≤ 100
7,"C[C@@H](N[C@H]1C[C@H](C(=O)O)C1(C)C)c1ccc2ccc(O[C@H]3CC[C@@H](C)CC3)c(C(F)(F)F)c2c1 [Example 114c, (1S,3S)-2,2-dimethyl-3-(((R)-1-(7-((cis-4-methylcyclohexyl)oxy)-8-(trifluoromethyl)naphthalen-2-yl)ethyl)amino)cyclobutanecarboxylic acid]",≤ 100
8,"C[C@@H](N[C@H]1C[C@@H](C(=O)O)C1(C)C)c1ccc2ccc(O[C@H]3CC[C@@H](C)CC3)c(C(F)(F)F)c2c1 [Example 114d, (1R,3S)-2,2-dimethyl-3-(((R)-1-(7-((cis-4-methylcyclohexyl)oxy)-8-(trifluoromethyl)naphthalen-2-yl)ethyl)amino)cyclobutanecarboxylic acid]",≤ 500
9,"CC[C@H]1CC[C@@H](Oc2ccc3ccc(C(C)N[C@@H]4C[C@H](C(=O)O)C4(C)C)cc3c2C(F)(F)F)CC1 (stereo partly drawn) [Example 115, (1S,3R)-3-((1-(7-((cis-4-ethylcyclohexyl)oxy)-8-(trifluoromethyl)naphthalen-2-yl)ethyl)amino)-2,2-dimethylcyclobutanecarboxylic acid]",≤ 100
10,CC[C@H]1CC[C@@H](Oc2ccc3ccc(C(C)N[C@H]4C[C@@H](C(=O)O)C4(C)C)cc3c2C(F)(F)F)CC1 (stereo partly drawn) [Example 116],≤ 100
11,"CC(N[C@@H]1C[C@H](C(=O)O)C1(C)C)c1ccc2ccc(O[C@H]3CC[C@@H](C(F)(F)F)CC3)c(C(F)(F)F)c2c1 (stereo partly drawn) [Example 119, (1S,3R)-2,2-dimethyl-3-((1-(8-(trifluoromethyl)-7-((cis-4-(trifluoromethyl)cyclohexyl)oxy)naphthalen-2-yl)ethyl)amino)cyclobutanecarboxylic acid]",≤ 100

# Second part, the molecule after the results:
row,IC50 [nM],Compound
1,≤ 100,"CC[C@H]1CC[C@@H](Oc2ccc3ccc([C@H](C)N[C@@H]4C[C@H](C(=O)O)C4(C)C)cc3c2C(F)(F)F)CC1 [Example 117b, (1S,3R)-3-(((S)-1-(7-((cis-4-ethylcyclohexyl)oxy)-8-(trifluoromethyl)naphthalen-2-yl)ethyl)amino)-2,2-dimethylcyclobutanecarboxylic acid]"
2,≤ 100,"CC[C@H]1CC[C@@H](Oc2ccc3ccc([C@@H](C)N[C@@H]4C[C@@H](C(=O)O)C4(C)C)cc3c2C(F)(F)F)CC1 [Example 117c, (1R,3R)-3-(((R)-1-(7-((cis-4-ethylcyclohexyl)oxy)-8-(trifluoromethyl)naphthalen-2-yl)ethyl)amino)-2,2-dimethylcyclobutanecarboxylic acid]"
3,≤ 500,"CC[C@H]1CC[C@@H](Oc2ccc3ccc([C@H](C)N[C@H]4C[C@H](C(=O)O)C4(C)C)cc3c2C(F)(F)F)CC1 [Example 118a, (1S,3S)-3-(((S)-1-(7-((cis-4-ethylcyclohexyl)oxy)-8-(trifluoromethyl)naphthalen-2-yl)ethyl)amino)-2,2-dimethylcyclobutanecarboxylic acid]"
4,≤ 100,"CC[C@H]1CC[C@@H](Oc2ccc3ccc([C@H](C)N[C@H]4C[C@@H](C(=O)O)C4(C)C)cc3c2C(F)(F)F)CC1 [Example 118b, (1R,3S)-3-(((S)-1-(7-((cis-4-ethylcyclohexyl)oxy)-8-(trifluoromethyl)naphthalen-2-yl)ethyl)amino)-2,2-dimethylcyclobutanecarboxylic acid]"
5,≤ 250,"CC[C@H]1CC[C@@H](Oc2ccc3ccc([C@@H](C)N[C@H]4C[C@H](C(=O)O)C4(C)C)cc3c2C(F)(F)F)CC1 [Example 118c, (1S,3S)-3-(((R)-1-(7-((cis-4-ethylcyclohexyl)oxy)-8-(trifluoromethyl)naphthalen-2-yl)ethyl)amino)-2,2-dimethylcyclobutanecarboxylic acid]"
6,≤ 500,"CC[C@H]1CC[C@@H](Oc2ccc3ccc([C@@H](C)N[C@H]4C[C@@H](C(=O)O)C4(C)C)cc3c2C(F)(F)F)CC1 [Example 118d, (1R,3S)-3-(((R)-1-(7-((cis-4-ethylcyclohexyl)oxy)-8-(trifluoromethyl)naphthalen-2-yl)ethyl)amino)-2,2-dimethylcyclobutanecarboxylic acid]"

# Same assay, conditions: IC50, FRET substrate FS-3 2 μM, ATX 1.0 μg/mL, 30 minutes pre-incubation, 2 hours at room temperature
row,Compound,IC50 [nM]
1,"CC(c1ccc2ccc(O[C@H]3CC[C@@H](C)CC3)c(C#N)c2c1)N1C2CCCC1CC(C(=O)O)C2 (stereo partly drawn) [Example 102, 9-(1-(8-cyano-7-((cis-4-methylcyclohexyl)oxy)naphthalen-2-yl)ethyl)-9-azabicyclo[3.3.1]nonane-3-carboxylic acid]",≤ 100
2,"CCC(c1ccc2ccc(O[C@H]3CC[C@@H](C)CC3)c(C(F)(F)F)c2c1)N1C2CCCC1CC(C(=O)O)C2 (stereo partly drawn) [Example 104, 9-(1-(7-((cis-4-methylcyclohexyl)oxy)-8-(trifluoromethyl)naphthalen-2-yl)propyl)-9-azabicyclo[3.3.1]nonane-3-carboxylic acid]",≤ 250
3,"CC(C)[C@H]1CC[C@@H](Oc2ccc3ccc(CN4C5CCC4CC(C(=O)O)C5)cc3c2C(F)(F)F)CC1 (stereo partly drawn) [Example 107, 8-((7-((cis-4-isopropylcyclohexyl)oxy)-8-(trifluoromethyl)naphthalen-2-yl)methyl)-8-azabicyclo[3.2.1]octane-3-carboxylic acid]",≤ 100
4,"CC(C)[C@H]1CC[C@@H](Oc2ccc3ccc(CN4C5CCCC4CC(C(=O)O)C5)cc3c2C(F)(F)F)CC1 (stereo partly drawn) [Example 108, 9-((7-((cis-4-isopropylcyclohexyl)oxy)-8-(trifluoromethyl)naphthalen-2-yl)methyl)-9-azabicyclo[3.3.1]nonane-3-carboxylic acid]",≤ 100
